Consider two molecules from publication PMC12785453, “Oral Fluid Concentrations and Pharmacological Effects of Clephedrone and Methylone in Humans” (International Journal of Molecular Sciences, 2025).

Like-named read-outs stand apart in the source and are kept apart here.

The conditions of data set [1]: cited from earlier work.
The test system of data set [2] is healthy male participants. The data set is described as follows: Subjective effects, ARCI short form, methylone trial. Type of data set: in vivo, humans. Conditions: 150 or 200 mg oral. Here is the method:
Methylone pharmacology was evaluated in a study designed as a randomized, double-blind, placebo-controlled, crossover clinical trial. Four pilot studies were conducted administering methylone at oral doses of 50 (n = 3), 100 (n = 6), 150 (n = 5), and 200 mg (n = 7). Participants attended 3 experimental sessions separated by a one-week wash-out period and received two doses of methylone (one dose per experimental session) compared to placebo, except in the last pilot study in which participants received one dose of methylone, compared to MDMA and placebo. However, in this manuscript, only the results corresponding to the highest methylone doses (n = 12; 150 and 200 mg; mean dose = 179.2 mg) are presented, to enable comparison with clephedrone self-administration. Participants were recruited by word of mouth in the volunteer database of the clinical pharmacology unit.
Methylone hydrochloride of high purity in powder form was acquired from LGC Standards (Teddington, UK) for the controlled study. The Pharmacy Department of the Hospital Universitari Germans Trias i Pujol was responsible for manufacturing, storing, and dispensing identical and opaque soft gelatin capsules containing 50 mg of methylone or a placebo (maltodextrin). Treatment consisted of 5 capsules that combined methylone and/or a placebo to reach the target dose. Details can be found in the previous article.
Subjective effects were evaluated with visual analog scales (VAS), the short form of the Addiction Research Center Inventory (ARCI), and the Evaluation of Subjective Effects of Substances with Abuse Potential questionnaire (VESSPA-SSE). In addition, the Sensitivity to Drug Reinforcement Questionnaire (SDRQ) and a pharmacological identification class questionnaire were used in the controlled study administering methylone.
The validated ARCI 49-item short form was used to evaluate and discriminate the subjective following five subscales that correspond to different classes of drugs of abuse: pentobarbital-chlorpromazine-alcohol group (PCAG) is susceptible to sedative effects, morphine-benzedrine group (MBG) is susceptible to euphoric effects, lysergic acid diethylamide (LSD) is susceptible to dysphoria and somatic symptoms, benzedrine (BG) is susceptible to intellectual efficiency and energy, and amphetamine (A) is susceptible to amphetamine-like effects.
Participants included in the naturalistic clephedrone study completed VAS at baseline, 0.50, 1, 1.5, 2, 3, 4, and 5 h, and ARCI and VESSPA at baseline, 1, 2, 3, 4, and 5 h after self-administering clephedrone. In the controlled study, VAS was performed at baseline and 0.25, 0.50, 0.75, 1, 1.5, 2, 3, 4, 6, 8, 10, and 24 h, and ARCI and VESSPA at baseline and 1, 2, 3, 4, 6, 8, and 10 h after administering methylone. Participants completed SDRQ and VAS sexual desire and arousal at baseline, 1 and 10 h, and the pharmacological class identification questionnaire at 8 h.
For statistical analysis, values of physiological (SBP, DBP, HR, and T) and subjective effects (VAS, ARCI, and VESSPA-SSE) were baseline–adjusted. Maximum effects (Emax) and the time needed to reach maximum effects (Tmax) were determined, and the area under the curve up to 5 h (AUC0–5h) for clephedrone and up to 6 h (AUC0–6h) for methylone was calculated using the trapezoidal rule. Emax and AUC values are presented as mean ± standard deviation, whereas Tmax is presented in median (range).
To find possible significant changes through the time course compared to baseline, a Dunnett multiple comparison test was carried out to compare each time point with baseline in both drug conditions. For clephedrone the comparisons were 0–0.5 h, 0–1 h, 0–1.5 h, 0–2 h, 0–3 h, 0–4 h and 0–5 h, and for methylone this analysis included 0–0.25 h, 0–0.5 h, 0–0.75 h, 0–1 h, 0–1.5 h, 0–2 h, 0–3 h, 0–4 h and 0–6 h. Given their different study designs, no comparative analysis between the time courses of both synthetic cathinones was conducted.

The conditions of data set [3]: cited from earlier work. This is another data set of the same source.

As to `CNC(C)C(=O)c1ccc(Cl)cc1` (centres unmarked) [Clephedrone, 4-chloromethcathinone], the “Blood concentrations, mean” value is recorded as 547 ng/mL in data set [1] (fatal cases) and 21.1 ng/mL in data set [1] (traffic controls, non-fatal cases (n = 9)).
As for `CNC(C)C(=O)c1ccc2c(c1)OCO2` (centres unmarked) [Methylone, 3,4-methylenedioxy-N-methylcathinone], the “Tmax of effects collected using ARCI” value in data set [2] amounted to 1 h. In data set [2] (n=12), the “ARCI A (amphetamine-like effects) Emax” value came to 2.92 ± 1.73 points, the “ARCI BG (intellectual efficiency) Emax” value is 1.50 ± 1.09 points, the “ARCI LSD (dysphoria) Emax” value was “–0.25 ± 1.29 points” and the “ARCI MBG (euphoria) Emax” value turned out to be 5.92 ± 4.68 points. In addition, the “ARCI PCAG (sedation) Emax” value in data set [2] (n=12) is 2.17 ± 3.49 points. In data set [2] (AUC0–6h, n=12), the “ARCI A (amphetamine-like effects) AUC0-5/6 h” value is recorded as 4.33 ± 2.77 points·h, the “ARCI BG (intellectual efficiency) AUC0-5/6 h” value is recorded as 0.83 ± 1.81 points·h, the “ARCI LSD (dysphoria) AUC0-5/6 h” value is recorded as “–0.96 ± 1.81 points·h” and the “ARCI MBG (euphoria) AUC0-5/6 h” value is 8.25 ± 6.89 points·h. The “ARCI PCAG (sedation) AUC0-5/6 h” value in data set [2] (AUC0–6h, n=12) is recorded as 5.46 ± 8.86 points·h. Besides, the Tmax in plasma in data set [3] is given as 2 h.
